According to patent US8217066B2, “Compounds as lysophosphatidic acid receptor antagonists” (Amira Pharmaceuticals, Inc., priority 2009, dated 2012):

Tests used:
[1] = test system: A2058 human melanoma cells; test: LPA1 chemotaxis assay; assay type: cell-based; conditions: 100 nM LPA, read-out: inhibition of LPA-driven chemotaxis, IC50
Method: Chemotaxis of the A2058 human melanoma cells was measured using the Neuroprobe ChemoTx® System plates (8 μm pore size, 5.7 mm diameter sites). The filter sites were coated with 0.001% fibronectin (Sigma) in 20 mM Hepes, pH 7.4 and allowed to dry. A2058 cells were serum-starved for 24 hours, then harvested with Cell Stripper and resuspended in DMEM containing 0.1% fatty-acid-free bovine serum albumin (BSA) to a concentration of 1×10^6/ml. Cells were mixed with an equal volume of test compound (2×) in DMEM containing 0.1% fatty-acid-free BSA and incubated at 37° C. for 15 minutes. LPA (100 nM in DMEM containing 0.1% fatty-acid-free BSA) or vehicle was added to each well of the lower chamber and 50 μl of the cell suspension/test compound mix was applied to the upper portion of the ChemoTx plate. Plates were incubated at 37° C. for three hours and then the cells removed from the upper portion by rinsing with PBS and scraping. The filter was dried then stained with HEMA 3 Staining System (Fisher Scientific). The absorbance of the filter was read at 590 nm and IC50s were determined using Symyx Assay Explorer.

human LPA1 = biological target: T1, human LPA1 (Homo sapiens, UniProt Q92633); test: LPA1 calcium flux assay (HLPA1 Ca Flux); assay type: cell-based; conditions: CHO cells stably expressing human LPA1, stimulated with 10 nM LPA
T1 construct: the full-length cDNA for human LPA1 was obtained by PCR of the reverse transcription reaction; expressed in transfected cells
T1 sequence (Q92633 whole entry): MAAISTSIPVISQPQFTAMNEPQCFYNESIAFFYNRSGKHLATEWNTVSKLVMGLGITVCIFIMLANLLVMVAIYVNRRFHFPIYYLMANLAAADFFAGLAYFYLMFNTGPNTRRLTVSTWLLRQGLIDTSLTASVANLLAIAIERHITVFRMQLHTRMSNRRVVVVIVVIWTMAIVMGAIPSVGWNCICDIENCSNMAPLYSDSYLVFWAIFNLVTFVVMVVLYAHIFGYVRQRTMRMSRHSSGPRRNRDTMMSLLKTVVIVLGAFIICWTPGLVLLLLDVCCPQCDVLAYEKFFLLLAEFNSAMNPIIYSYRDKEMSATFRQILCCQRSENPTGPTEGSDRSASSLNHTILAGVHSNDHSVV
Method: A 1.1 kb cDNA encoding the human LPA1 receptor was cloned from human lung. Human lung RNA (Clontech Laboratories, Inc. USA) was reverse transcribed using the RETROscript kit (Ambion, Inc.) and the full-length cDNA for human LPA1 was obtained by PCR of the reverse transcription reaction. The nucleotide sequence of the cloned human LPA1 was determined by sequencing and confirmed to be identical to the published human LPA1 sequence (An et al. Biochem. Biophys. Res. Commun. 231:619 (1997). The cDNA was cloned into the pcDNA5/FRT expression plasmid and transfected in CHO cells using lipofectamine 2000 (Invitrogen Corp., USA). Clones stably expressing human LPA1 were selected using hygromycin and identified as cells that show Ca-influx in response to LPA.
Human LPA1 or LPA3 expressing CHO cells are seeded at 20,000-45,000 cells per well in a 96-well poly-D-lysine coated plate one or two days before the assay. Prior to the assay, the cells are washed once with PBS and then cultured in serum-free media overnight. On the day of the assay, a calcium indicator dye (Calcium 4, Molecular Devices) in assay buffer (HBSS with Ca^2+ and Mg^2+ and containing 20 mM Hepes and 0.3% fatty-acid free human serum albumin) is added to each well and incubation continued for 1 hour at 37° C. […] of test compounds in 2.5% DMSO are added to the cells and incubation continued at room temperature for 30 minutes. Cells are the stimulated by the addition of 10 nM LPA and intracellular Ca^2+ measured using the Flexstation 3 (Molecular Devices). IC50s are determined using Graphpad prism analysis of drug titration curves.

Compound | IC50 [1] [µM] | IC50 (human LPA1) [µM]
Cc1noc(-c2ccc(-c3ccc(C4(C(=O)O)CC4)cc3)cc2)c1NC(C)CCc1ccccc1 (single isomer, unassigned) [Compound 51, 1-{4′-[3-Methyl-4-(1-methyl-3-phenyl-propylamino)-isoxazol-5-yl]-biphenyl-4-yl}-cyclopropanecarboxylic acid] | < 0.1 | –
Cc1noc(-c2ccc(-c3ccc(C4(C(=O)NS(C)(=O)=O)CC4)cc3)cc2)c1[C@H](O)CO[C@H](C)c1ccccc1 [Compound 72, N-[1-(4′-{4-[(S)-1-Hydroxy-2-((R)-1-phenyl-ethoxy)-ethyl]-3-methyl-isoxazol-5-yl]-biphenyl-4-yl)-cyclopropanecarbonyl}-methanesulfonamide] | < 0.1 | < 0.3
Cc1noc(-c2ccc(-c3ccc(C4(C(=O)O)CC4)cc3)cc2)c1NC(C)CCc1ccccc1 (centres unmarked) [Compound 4, 1-{4′-[3-Methyl-4-(1-methyl-3-phenyl-propylamino)-isoxazol-5-yl]-biphenyl-4-yl}-cyclopropanecarboxylic acid] | < 0.1 | –
Cc1noc(-c2ccc(-c3ccc(C4(C(=O)O)CC4)cc3)cc2)c1CC(F)(F)CCc1ccccc1 [Compound 21, 1-{4′-[4-(2,2-Difluoro-4-phenyl-butyl)-3-methyl-isoxazol-5-yl]-biphenyl-4-yl}-cyclopropanecarboxylic acid] | < 0.1 | < 0.3
Cc1noc(-c2ccc(-c3ccc(C4(C(=O)O)CC4)cc3)cc2)c1NC(C)CCc1ccc(Cl)cc1 (centres unmarked) [Compound 54, 1-(4′-{4-[3-(4-Chloro-phenyl)-1-methyl-propylamino]-3-methyl-isoxazol-5-yl}-biphenyl-4-yl)-cyclopropanecarboxylic acid] | < 0.1 | < 0.3
Cc1noc(-c2ccc(-c3ccc(C4(C(=O)O)CC4)cc3)cc2)c1NC(C)CCc1cccc(Cl)c1 (centres unmarked) [Compound 41, 1-(4′-{4-[3-(3-Chloro-phenyl)-1-methyl-propylamino]-3-methyl-isoxazol-5-yl}-biphenyl-4-yl)-cyclopropanecarboxylic acid] | < 0.1 | –
Cc1noc(-c2ccc(-c3ccc(C4(C(=O)NS(C)(=O)=O)CC4)cc3)cc2)c1[C@H](O)CSCc1ccccc1 [Compound 77, N-(1-{4′-[4-((S)-2-Benzylsulfanyl-1-hydroxy-ethyl)-3-methyl-isoxazol-5-yl]-biphenyl-4-yl}-cyclopropanecarbonyl)-methanesulfonamide] | < 0.1 | < 0.3
Cc1noc(-c2ccc(-c3ccc(C4(C(=O)NS(C)(=O)=O)CC4)cc3)cc2)c1C(O)C(F)(F)CCc1ccccc1 (centres unmarked) [Compound 76, N-(1-{4′-[4-(2,2-Difluoro-1-hydroxy-4-phenyl-butyl)-3-methyl-isoxazol-5-yl]-biphenyl-4-yl}-cyclopropanecarbonyl)-methanesulfonamide] | < 0.1 | < 0.3
Cc1noc(-c2ccc(-c3ccc(C4(C(=O)O)CC4)cc3)cc2)c1[C@H](O)CO[C@H](C)c1ccccc1 [Compound 49, 1-(4′-{4-[(5)-1-Hydroxy-2-((R)-1-phenyl-ethoxy)-ethyl]-3-methyl-isoxazol-5-yl}-biphenyl-4-yl)-cyclopropanecarboxylic acid] | < 0.1 | < 0.3
Cc1noc(-c2ccc(-c3ccc(C4(C(=O)O)CC4)cc3)cc2)c1C(O)C(F)(F)CCc1ccc(F)cc1 (centres unmarked) [Compound 62, 1-(4′-{4-[2,2-Difluoro-4-(4-fluoro-phenyl)-1-hydroxy-butyl]-3-methyl-isoxazol-5-yl}-biphenyl-4-yl)-cyclopropanecarboxylic acid] | – | < 0.3
Cc1noc(-c2ccc(-c3ccc(C4(C(=O)O)CC4)cc3)cc2)c1C(O)C(C)CCc1ccccc1 (centres unmarked) [Compound 44, 1-{4′-[4-(1-Hydroxy-2-methyl-4-phenyl-butyl)-3-methyl-isoxazol-5-yl]-biphenyl-4-yl}-cyclopropanecarboxylic acid] | – | < 0.3
Cc1noc(-c2ccc(-c3ccc(C4(C(=O)O)CC4)cc3)cc2)c1C(F)(F)CCCc1ccccc1 [Compound 46, 1-{4′-[4-(1,1-Difluoro-4-phenyl-butyl)-3-methyl-isoxazol-5-yl]-biphenyl-4-yl}-cyclopropanecarboxylic acid] | – | 1 to 50
Cc1noc(-c2ccc(-c3ccc(C4(C(=O)O)CC4)cc3)cc2)c1CCOCc1cccc(Cl)c1 [Compound 16, 1-(4′-{4-[2-(3-Chloro-benzyloxy)-ethyl]-3-methyl-isoxazol-5-yl}-biphenyl-4-yl)-cyclopropanecarboxylic acid] | – | < 0.3
Cc1noc(-c2ccc(-c3ccc(C4(C(=O)NS(C)(=O)=O)CC4)cc3)cc2)c1[C@H](O)COCc1ccccc1 [Compound 73, N-(1-{4′-[4-((S)-2-Benzyloxy-1-hydroxy-ethyl)-3-methyl-isoxazol-5-yl]-biphenyl-4-yl}-cyclopropanecarbonyl)-methanesulfonamide] | < 0.1 | < 0.3
Cc1noc(-c2ccc(-c3ccc(C4(C(=O)O)CC4)cc3)cc2)c1CNC[C@H](C)c1ccccc1 [Compound 22, 1-(4′-{3-Methyl-4-[((R)-2-phenyl-propylamino)-methyl]-isoxazol-5-yl}-biphenyl-4-yl)-cyclopropanecarboxylic acid] | – | < 0.3
Cc1noc(-c2ccc(-c3ccc(C4(C(=O)O)CC4)cc3)cc2)c1CSCCc1ccccc1 [Compound 10, 1-[4′-(3-Methyl-4-phenethylsulfanylmethyl-isoxazol-5-yl)-biphenyl-4-yl]-cyclopropanecarboxylic acid] | – | < 0.3
Cc1noc(-c2ccc(-c3ccc(C4(C(=O)O)CC4)cc3)cc2)c1C(O)COCc1ccccc1 (single isomer, unassigned) [Compound 47, 1-{4′-[4-(2-Benzyloxy-1-hydroxy-ethyl)-3-methyl-isoxazol-5-yl]-biphenyl-4-yl}-cyclopropanecarboxylic acid] | < 0.1 | –
Cc1noc(-c2ccc(-c3ccc(C4(C(=O)O)CC4)cc3)cc2)c1NC(C)CCc1c(F)cccc1Cl (centres unmarked) [Compound 55, 1-(4′-{4-[3-(2-Chloro-6-fluoro-phenyl)-1-methyl-propylamino]-3-methyl-isoxazol-5-yl}-biphenyl-4-yl)-cyclopropanecarboxylic acid] | – | < 0.3
Cc1noc(-c2ccc(-c3ccc(C4(C(=O)O)CC4)cc3)cc2)c1NCCC(C)c1ccccc1 (centres unmarked) [Compound 1, 1-{4′-[3-Methyl-4-(3-phenyl-butylamino)-isoxazol-5-yl]-biphenyl-4-yl}-cyclopropanecarboxylic acid] | – | < 0.3
Cc1noc(-c2ccc(-c3ccc(C4(C(=O)O)CC4)cc3)cc2)c1NC(C)CCc1cccc(Cl)c1 (single isomer, unassigned) [Compound 57, 1-(4′-{4-[3-(3-Chloro-phenyl)-1-methyl-propylamino]-3-methyl-isoxazol-5-yl}-biphenyl-4-yl)-cyclopropanecarboxylic acid] | < 0.1 | –
Cc1noc(-c2ccc(-c3ccc(C4(C(=O)O)CC4)cc3)cc2)c1C(O)COCc1ccccc1 (centres unmarked) [Compound 42, 1-{4′-[4-(2-Benzyloxy-1-hydroxy-ethyl)-3-methyl-isoxazol-5-yl]-biphenyl-4-yl}-cyclopropanecarboxylic acid] | < 0.1 | –
Cc1noc(-c2ccc(-c3ccc(C4(C(=O)O)CC4)cc3)cc2)c1CC(C)(O)CCc1ccccc1 (centres unmarked) [Compound 25, 1-{4′-[4-(2-Hydroxy-2-methyl-4-phenyl-butyl)-3-methyl-isoxazol-5-yl]-biphenyl-4-yl}-cyclopropanecarboxylic acid] | – | < 0.3
